Common to all, as to assay type: cell-based
The test system of one test is pERK in SW620 cells. Kind of test: SW620 pERK assay. To be noted: Homo sapiens, SW-620, SW620.
For another test, the system named is HPAC cells. Kind of test: HPAC 3D proliferation assay (CellTiter-Glo 3D). Particulars: Homo sapiens, 168 h, 3D culture, 7 days, read-out: HPAC CTG IC50. As to the method:
(§1) Compound potencies were assessed in proliferation assays conducted with SW620 and HPAC cell lines grown in 3D cultures. Cells were seeded into 96- or 384-well ultra-low attachment plates at 3000 or 1000 cells/well, respectively, in culture medium (RPMI-1640, 10% FBS, 2 mM L-glutamine). The plated cells were centrifuged briefly, allowed to rest for 30 minutes under ambient conditions, and cultured overnight at 37° C./5% C02 to initiate the formation of spheroids. Compound dilutions were prepared across a range of concentrations in DMSO and added to the appropriate wells of the assay plates with a 333-fold dilution into the culture medium. The plates were further incubated for 7 days. The quantity of viable cells was assessed using CellTiter-Glo 3D Cell Viability Assay (Promega). The detection reagent penetrates the spheroids and lyses the cells. The released ATP that was detected with luciferase and a luciferase substrate to generate a luminescent readout. […] The data points were fit to a 4-parameter logistic equation to determine IC50 values.

A further test relates to SW620 cells. As to the kind of experiment: SW620 3D proliferation assay (CellTiter-Glo 3D). To be noted: Homo sapiens, SW-620, 168 h, SW620, 3D culture, 7 days, read-out: SW620 CTG IC50. The method, then:
as §1

The next test has as its system H1975 cells. Kind of test: H1975 CTG proliferation assay. To be noted: Homo sapiens, NCI-H1975, H1975.

IC50 data for four compounds are collected here from US20260137699A1, “OXAZEPINE COMPOUNDS COMPRISING A 6-AZA MOIETY AND USES THEREOF” (Genentech, Inc., priority 2022, published 2026).

As for `Cc1nc(N)c(Cl)c(-c2nc3c4c(nc(OC[C@@]56CCCN5C[C@H](F)C6)nc4c2F)N([C@H](C)c2cccnc2N)CCO3)c1C(F)(F)F` (atropisomer, axis not shown; (aS)) [Example 601a, 4-((R)-10-((R)-1-(2-aminopyridin-3-yl)ethyl)-4-fluoro-2-(((2R,7aS)-2-fluorotetrahydro-1H-pyrrolizin-7a(5H)-yl)methoxy)-9,10-dihydro-8H-7-oxa-1,3,6,10-tetraazacyclohepta[de]naphthalen-5-yl)-3-chloro-6-methyl-5-(trifluoromethyl)pyridin-2-amine], the IC50 was 2.34 nM in the test with pERK in SW620 cells and 33.6 nM in the test on HPAC cells.

Regarding `Cc1nc(N)c(Cl)c(-c2nc3c4c(nc(OC[C@@]56CCCN5C[C@H](F)C6)nc4c2F)N([C@H](C)c2cccnc2N)CCO3)c1C(F)(F)F` (single isomer, unassigned) [Example 601b], the IC50 amounted to 15.6 nM with pERK in SW620 cells, 86.7 nM in the test on HPAC cells, 9.3 nM with SW620 cells and 80.2 nM in the test with H1975 cells.

For `Cc1c(F)c(N)cc(-c2nc3c4c(nc(OC[C@@H]5CC(F)(F)CN5C)nc4c2F)N([C@H](C)c2nccnc2N)CCO3)c1C(F)(F)F` [Example 8, 3-((R)-1-(5-(5-amino-4-fluoro-3-methyl-2-(trifluoromethyl)phenyl)-2-(((S)-4,4-difluoro-1-methylpyrrolidin-2-yl)methoxy)-4-fluoro-8,9-dihydro-10H-7-oxa-1,3,6,10-tetraazacyclohepta[de]naphthalen-10-yl)ethyl)pyrazin-2-amine], the IC50 with HPAC cells is ≥ 2000 nM.

Turning to `C[C@H](c1cccnc1N)N1CCOc2nc(-c3cccc4sc(N)nc34)c(F)c3nc(OC[C@@]45CCCN4C[C@H](F)C5)nc1c23` [Example 24, 4-(10-((R)-1-(2-aminopyridin-3-yl)ethyl)-4-fluoro-2-(((2R,7aS)-2-fluorotetrahydro-1H-pyrrolizin-7a(5H)-yl)methoxy)-9,10-dihydro-8H-7-oxa-1,3,6,10-tetraazacyclohepta[de]naphthalen-5-yl)benzo[d]thiazol-2-amine], the IC50 in the test on HPAC cells was ≥ 2000 nM.
